Reference: ChEMBL document CHEMBL3351479, “Novel acylureidoindolin-2-one derivatives as dual Aurora B/FLT3 inhibitors for the treatment of acute myeloid leukemia” (Eur J Med Chem, 2014)
pIC50: −log10 of the molar value. Active and inactive are the calls of the source. The calls are words filed in the database; no cut-off is given here.

Assays:
[1] = Volume of distribution at steady state in BALB/c mouse at 2 mg/kg, iv; assay type: ADME, organism-based; design: dose 2 mg/kg, route intravenous; details: in vivo, read-out: Vdss
[2] = biological target: T1, Tyrosine-protein kinase Lck (Homo sapiens, UniProt P06239); test: Inhibition of Lck (unknown origin)
[3] = Toxicity in BALB/c AnN.Cg-Foxnlnu/CrlNarl mouse xenografted with human MOLM13 cells at 10 mg/kg, ip administered qd for 16 days; assay type: organism-based, MOLM-13; design: dose 10 mg/kg, route intraperitoneal; details: in vivo
Cytochrome P450 3A4 = Cytochrome P450 3A4 (Homo sapiens, UniProt P08684); test: Inhibition of CYP3A4 (unknown origin) using Vivid OOMR substrate; assay type: ADME
[4] = Half life in BALB/c mouse at 2 mg/kg, iv; assay type: ADME, organism-based; design: dose 2 mg/kg, route intravenous; details: in vivo
[5] = Cmax in BALB/c mouse at 10 mg/kg, po; assay type: ADME, organism-based; design: dose 10 mg/kg, route oral; details: in vivo
Cytochrome P450 2D6 = Cytochrome P450 2D6 (Homo sapiens, UniProt P10635); test: Inhibition of CYP2D6 (unknown origin) using 3-cyano-7-ethoxycoumarin substrate; assay type: ADME
[6] = AUC (0 to 24 hrs) in BALB/c mouse at 10 mg/kg, po; assay type: ADME, organism-based; design: time < 24 hr, dose 10 mg/kg, route oral; details: plasma
[7] = Oral bioavailability in BALB/c mouse at 10 mg/kg; assay type: ADME, organism-based; details: in vivo
MOLM-13 [8] = test: Antitumor activity against human MOLM13 cells xenografted in BALB/c AnN.Cg-Foxnlnu/CrlNarl mouse assessed as reduction in tumor growth at 10 mg/kg, ip once daily for 16 days; assay type: functional; details: MOLM-13, ip, 384 h, route intraperitoneal
[9] = biological target: Cytochrome P450 1A2 (Homo sapiens) (UniProt P05177); test: Inhibition of CYP1A2 (unknown origin) using 3-cyano-7-ethoxycoumarin substrate
[10] = AUC (0 to 24 hrs) in BALB/c mouse at 2 mg/kg, iv; assay type: ADME, organism-based; design: time < 24 hr, dose 2 mg/kg, route intravenous; details: plasma
[11] = Half life in BALB/c mouse at 10 mg/kg, po; assay type: ADME, organism-based; design: dose 10 mg/kg, route oral; details: in vivo
Vero = test: Cytotoxicity against african green monkey Vero cells at 10 uM after 48 hrs by MTT assay; assay type: cell-based; details: chlorocebus sabaeus
MOLM-13 [12] = test: Antitumor activity against human MOLM13 cells xenografted in BALB/cAnN.Cg-Foxnlnu/CrlNarl mouse assessed as reduction in tumor mass at 10 mg/kg, ip once daily for 16 days; assay type: functional; details: MOLM-13, ip, 384 h, route intraperitoneal
[13] = biological target: Voltage-gated inwardly rectifying potassium channel KCNH2 (Homo sapiens, UniProt Q12809); test: Inhibition of human ERG channel after 3 hrs by fluorescence assay
MV4-11 = test: Cytotoxicity against human MV4-11 cells assessed as cell viability after 48 hrs by MTT assay; assay type: functional, cell-based; details: Homo sapiens, MV4-11, 48 h
[14] = Therapeutic index, ratio of LD50 for BALB/c AnN.Cg-Foxnlnu/CrlNarl mouse to ED50 for antitumor activity against human MOLM13 cells xenografted in BALB/c AnN.Cg-Foxnlnu/CrlNarl mouse; assay type: cell-based, MOLM-13; details: in vivo, read-out: Ratio LD50/ED50
Cytochrome P450 2C19 = Cytochrome P450 2C19 (Homo sapiens, UniProt P33261); test: Inhibition of CYP2C19 (unknown origin) using 3-cyano-7-ethoxycoumarin substrate; assay type: ADME
[15] = Permeability coefficient of the compound at pH 7.4 by PAMPA-GIT assay; assay type: ADME; details: read-out: Peff
[16] = biological target: Mast/stem cell growth factor receptor Kit (Homo sapiens, UniProt P10721); test: Inhibition of c-Kit (unknown origin)
[17] = Ratio of solubility in PBS to solubility in DMSO; assay type: physicochemical
[18] = Tmax in BALB/c mouse at 2 mg/kg, iv; assay type: ADME, organism-based; design: dose 2 mg/kg, route intravenous; details: in vivo
Mus musculus = test: Toxicity in BALB/c AnN.Cg-Foxnlnu/CrlNarl mouse xenografted with human MOLM13 cells assessed as body weight loss at 10 mg/kg, ip administered qd for 16 days; assay type: organism-based, MOLM-13; design: dose 10 mg/kg, route intraperitoneal; details: in vivo, 384 h
[19] = Tmax in BALB/c mouse at 10 mg/kg, po; assay type: ADME, organism-based; design: dose 10 mg/kg, route oral; details: in vivo
[20] = Cytotoxicity against human HL60 cells assessed as cell viability after 48 hrs by MTT assay; assay type: functional, cell-based; details: HL-60, 48 h
MOLM-13 [21] = test: Cytotoxicity against human MOLM13 cells assessed as cell viability after 48 hrs by MTT assay; assay type: functional, cell-based; details: MOLM-13, 48 h
Cytochrome P450 2C9 = Cytochrome P450 2C9 (Homo sapiens, UniProt P11712); test: Inhibition of CYP2C9 (unknown origin) using Vivid OOMR substrate; assay type: ADME
[22] = Cmax in BALB/c mouse at 2 mg/kg, iv; assay type: ADME, organism-based; design: dose 2 mg/kg, route intravenous; details: in vivo
THP-1 [23] = test: Cytotoxicity against human THP1 cells assessed as cell viability after 48 hrs by MTT assay; assay type: functional, cell-based; details: Homo sapiens, THP-1, 48 h
[24] = Clearance in BALB/c mouse at 2 mg/kg, iv; assay type: ADME, organism-based; design: dose 2 mg/kg, route intravenous; details: in vivo
[25] = biological target: Hepatocyte growth factor receptor (Homo sapiens) (UniProt P08581); test: Inhibition of c-Met (unknown origin) at 1 uM
[26] = biological target: Serine/threonine-protein kinase mTOR (Homo sapiens) (UniProt P42345); test: Inhibition of mTOR/FRAP1 (unknown origin) at 1 uM
[27] = biological target: Dual specificity mitogen-activated protein kinase kinase 1 (Homo sapiens) (UniProt Q02750); test: Inhibition of MEK1/MAP2K1 (unknown origin) at 1 uM
[28] = biological target: Fibroblast growth factor receptor 1 (Homo sapiens) (UniProt P11362); test: Inhibition of FGFR1 (unknown origin) at 1 uM
[29] = biological target: Serine/threonine-protein kinase Chk1 (Homo sapiens) (UniProt O14757); test: Inhibition of CHK1 (unknown origin) at 1 uM
[30] = biological target: Tyrosine-protein kinase ABL1 (Homo sapiens) (UniProt P00519); test: Inhibition of ABL1 (unknown origin) at 1 uM
[31] = biological target: Serine/threonine-protein kinase PLK1 (Homo sapiens) (UniProt P53350); test: Inhibition of Plk1 (unknown origin) at 1 uM
[32] = biological target: Vascular endothelial growth factor receptor 2 (Homo sapiens) (UniProt P35968); test: Inhibition of KDR/VEGFR2 (unknown origin) at 1 uM
MOLM-13 [33] = test: Induction of apoptosis in human MOLM13 cells assessed as caspase 8 activation after 24 hrs; assay type: functional, cell-based
[34] = biological target: Platelet-derived growth factor receptor beta (Homo sapiens) (UniProt P09619); test: Inhibition of PDGFRbeta (unknown origin) at 1 uM
[35] = biological target: Receptor tyrosine-protein kinase erbB-2 (Homo sapiens) (UniProt P04626); test: Inhibition of ERBB2/Her2 (unknown origin) at 1 uM
THP-1 [36] = test: Induction of apoptosis in human THP1 cells assessed as caspase 3 activation after 24 hrs; assay type: functional, cell-based
[37] = biological target: Epidermal growth factor receptor (Homo sapiens) (UniProt P00533); test: Inhibition of EGFR (unknown origin) at 1 uM
[38] = biological target: Aurora kinase C (Homo sapiens) (UniProt Q9UQB9); test: Inhibition of Aurora C (unknown origin) at 1 uM
[39] = biological target: Proto-oncogene tyrosine-protein kinase Src (Homo sapiens) (UniProt P12931); test: Inhibition of c-Src (unknown origin) at 1 uM
[40] = biological target: Angiopoietin-1 receptor (Homo sapiens) (UniProt Q02763); test: Inhibition of TEK/Tie-2 (unknown origin) at 1 uM
[41] = biological target: Insulin-like growth factor 1 receptor (Homo sapiens) (UniProt P08069); test: Inhibition of IGF1R (unknown origin) at 1 uM
MOLM-13 [42] = test: Induction of apoptosis in human MOLM13 cells assessed as caspase 3 activation after 24 hrs; assay type: functional, cell-based
MOLM-13 [43] = test: Antitumor activity against human MOLM13 cells xenografted in ip dosed BALB/c AnN.Cg-Foxnlnu/CrlNarl mouse assessed as reduction in tumor growth treated once daily for 16 days; assay type: functional, organism-based
[44] = biological target: Tyrosine-protein kinase JAK2 (Homo sapiens) (UniProt O60674); test: Inhibition of JAK2 (unknown origin) at 1 uM
[45] = biological target: Rho-associated protein kinase 1 (Homo sapiens) (UniProt Q13464); test: Inhibition of ROCK1 (unknown origin) at 1 uM
[46] = biological target: Mitogen-activated protein kinase 9 (Homo sapiens) (UniProt P45984); test: Inhibition of JNK2 (unknown origin) at 1 uM
[47] = biological target: RAC-alpha serine/threonine-protein kinase (Homo sapiens) (UniProt P31749); test: Inhibition of AKT1 (unknown origin) at 1 uM
[48] = biological target: Aurora kinase A (Homo sapiens) (UniProt O14965); test: Inhibition of Aurora A (unknown origin) at 1 uM
[49] = biological target: Tyrosine-protein kinase Lyn (Homo sapiens) (UniProt P07948); test: Inhibition of Lyn (unknown origin) at 1 uM
THP-1 [50] = test: Induction of apoptosis in human THP1 cells assessed as caspase 8 activation after 24 hrs; assay type: functional, cell-based
[51] = biological target: Receptor-type tyrosine-protein kinase FLT3 (Homo sapiens) (UniProt P36888); test: Inhibition of Aurora B/FLT3 in human MOLM13 cells assessed as inhibition of HH3 phosphorylation after 4 hrs by Dot-blot analysis; assay type: cell-based; details: MOLM-13
[52] = biological target: Receptor-type tyrosine-protein kinase FLT3 (Homo sapiens) (UniProt P36888); test: Inhibition of Aurora B/FLT3 in human MOLM13 cells assessed as inhibition of STAT5 phosphorylation after 4 hrs by Dot-blot analysis; assay type: cell-based; details: MOLM-13
[53] = biological target: T1, Tyrosine-protein kinase Lck; details: 1 uM
Description: Inhibition of Lck (unknown origin) at 1 uM

MOLM-13 [54] = test: Induction of apoptosis in human MOLM13 cells assessed as increase in FasL level up to 20 uM; assay type: functional, cell-based
[55] = biological target: Platelet-derived growth factor receptor alpha (Homo sapiens) (UniProt P16234); test: Inhibition of PDGFRalpha (unknown origin) at 1 uM
[56] = biological target: Serine/threonine-protein kinase B-raf (Homo sapiens) (UniProt P15056); test: Inhibition of BRAF (unknown origin) at 1 uM
A549 = test: Induction of apoptosis in human A549 cells assessed as caspase 8 activation after 24 hrs; assay type: functional, cell-based

Receptor-type tyrosine-protein kinase FLT3 (Homo sapiens), sequence (P36888 whole entry): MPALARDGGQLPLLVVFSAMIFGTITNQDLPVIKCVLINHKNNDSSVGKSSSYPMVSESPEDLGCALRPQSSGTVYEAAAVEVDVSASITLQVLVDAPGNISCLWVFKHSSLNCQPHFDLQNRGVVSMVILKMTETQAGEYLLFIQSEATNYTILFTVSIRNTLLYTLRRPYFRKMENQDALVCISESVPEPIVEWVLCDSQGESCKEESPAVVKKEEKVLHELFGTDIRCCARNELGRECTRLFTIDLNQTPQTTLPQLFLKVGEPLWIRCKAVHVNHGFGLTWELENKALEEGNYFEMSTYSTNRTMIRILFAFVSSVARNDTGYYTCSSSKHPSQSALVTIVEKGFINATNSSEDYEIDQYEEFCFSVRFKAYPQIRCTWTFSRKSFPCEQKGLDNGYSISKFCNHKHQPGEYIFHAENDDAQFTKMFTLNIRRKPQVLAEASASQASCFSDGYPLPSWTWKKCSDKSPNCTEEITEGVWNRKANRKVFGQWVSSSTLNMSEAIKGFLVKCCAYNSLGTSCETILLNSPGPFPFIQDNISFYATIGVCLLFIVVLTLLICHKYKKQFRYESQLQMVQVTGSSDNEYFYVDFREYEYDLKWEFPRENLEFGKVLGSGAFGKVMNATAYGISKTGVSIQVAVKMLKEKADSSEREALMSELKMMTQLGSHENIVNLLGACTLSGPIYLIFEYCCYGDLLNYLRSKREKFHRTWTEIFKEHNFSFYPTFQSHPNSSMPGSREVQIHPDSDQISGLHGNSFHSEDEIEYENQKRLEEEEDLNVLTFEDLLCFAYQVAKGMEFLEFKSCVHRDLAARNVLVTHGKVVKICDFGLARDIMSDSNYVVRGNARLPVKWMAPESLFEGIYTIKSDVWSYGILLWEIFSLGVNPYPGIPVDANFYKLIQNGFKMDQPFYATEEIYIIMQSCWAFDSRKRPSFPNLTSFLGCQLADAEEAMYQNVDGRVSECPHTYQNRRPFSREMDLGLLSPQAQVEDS
Angiopoietin-1 receptor (Homo sapiens), sequence (Q02763 whole entry): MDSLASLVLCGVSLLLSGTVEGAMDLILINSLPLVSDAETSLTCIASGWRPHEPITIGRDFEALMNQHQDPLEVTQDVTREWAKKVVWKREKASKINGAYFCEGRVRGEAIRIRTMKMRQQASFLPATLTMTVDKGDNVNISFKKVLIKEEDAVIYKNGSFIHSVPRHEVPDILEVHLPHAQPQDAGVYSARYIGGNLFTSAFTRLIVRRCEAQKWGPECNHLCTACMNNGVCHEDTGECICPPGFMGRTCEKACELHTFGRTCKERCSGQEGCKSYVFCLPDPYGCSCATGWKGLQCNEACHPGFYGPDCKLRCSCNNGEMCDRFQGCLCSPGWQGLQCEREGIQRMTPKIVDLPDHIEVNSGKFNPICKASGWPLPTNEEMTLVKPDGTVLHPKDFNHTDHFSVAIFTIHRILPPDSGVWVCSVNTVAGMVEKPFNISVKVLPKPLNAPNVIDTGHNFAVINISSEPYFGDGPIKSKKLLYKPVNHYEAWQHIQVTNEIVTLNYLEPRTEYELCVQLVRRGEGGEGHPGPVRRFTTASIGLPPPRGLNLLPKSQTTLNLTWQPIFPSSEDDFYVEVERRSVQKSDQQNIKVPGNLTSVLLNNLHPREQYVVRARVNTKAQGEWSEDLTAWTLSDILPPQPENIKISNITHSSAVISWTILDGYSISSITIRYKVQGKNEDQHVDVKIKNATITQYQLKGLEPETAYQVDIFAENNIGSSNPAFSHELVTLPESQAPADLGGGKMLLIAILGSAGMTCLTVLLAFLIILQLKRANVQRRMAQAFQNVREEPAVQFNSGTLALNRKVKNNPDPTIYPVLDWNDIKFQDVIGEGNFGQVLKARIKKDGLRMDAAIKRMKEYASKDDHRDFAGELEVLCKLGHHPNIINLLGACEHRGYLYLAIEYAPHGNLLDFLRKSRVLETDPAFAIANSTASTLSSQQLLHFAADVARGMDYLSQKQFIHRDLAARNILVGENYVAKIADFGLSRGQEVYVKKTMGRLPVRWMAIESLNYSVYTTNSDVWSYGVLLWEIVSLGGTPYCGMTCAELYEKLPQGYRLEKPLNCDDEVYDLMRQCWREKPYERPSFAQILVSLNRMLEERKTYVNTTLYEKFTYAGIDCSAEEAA
Hepatocyte growth factor receptor (Homo sapiens), sequence (P08581 whole entry): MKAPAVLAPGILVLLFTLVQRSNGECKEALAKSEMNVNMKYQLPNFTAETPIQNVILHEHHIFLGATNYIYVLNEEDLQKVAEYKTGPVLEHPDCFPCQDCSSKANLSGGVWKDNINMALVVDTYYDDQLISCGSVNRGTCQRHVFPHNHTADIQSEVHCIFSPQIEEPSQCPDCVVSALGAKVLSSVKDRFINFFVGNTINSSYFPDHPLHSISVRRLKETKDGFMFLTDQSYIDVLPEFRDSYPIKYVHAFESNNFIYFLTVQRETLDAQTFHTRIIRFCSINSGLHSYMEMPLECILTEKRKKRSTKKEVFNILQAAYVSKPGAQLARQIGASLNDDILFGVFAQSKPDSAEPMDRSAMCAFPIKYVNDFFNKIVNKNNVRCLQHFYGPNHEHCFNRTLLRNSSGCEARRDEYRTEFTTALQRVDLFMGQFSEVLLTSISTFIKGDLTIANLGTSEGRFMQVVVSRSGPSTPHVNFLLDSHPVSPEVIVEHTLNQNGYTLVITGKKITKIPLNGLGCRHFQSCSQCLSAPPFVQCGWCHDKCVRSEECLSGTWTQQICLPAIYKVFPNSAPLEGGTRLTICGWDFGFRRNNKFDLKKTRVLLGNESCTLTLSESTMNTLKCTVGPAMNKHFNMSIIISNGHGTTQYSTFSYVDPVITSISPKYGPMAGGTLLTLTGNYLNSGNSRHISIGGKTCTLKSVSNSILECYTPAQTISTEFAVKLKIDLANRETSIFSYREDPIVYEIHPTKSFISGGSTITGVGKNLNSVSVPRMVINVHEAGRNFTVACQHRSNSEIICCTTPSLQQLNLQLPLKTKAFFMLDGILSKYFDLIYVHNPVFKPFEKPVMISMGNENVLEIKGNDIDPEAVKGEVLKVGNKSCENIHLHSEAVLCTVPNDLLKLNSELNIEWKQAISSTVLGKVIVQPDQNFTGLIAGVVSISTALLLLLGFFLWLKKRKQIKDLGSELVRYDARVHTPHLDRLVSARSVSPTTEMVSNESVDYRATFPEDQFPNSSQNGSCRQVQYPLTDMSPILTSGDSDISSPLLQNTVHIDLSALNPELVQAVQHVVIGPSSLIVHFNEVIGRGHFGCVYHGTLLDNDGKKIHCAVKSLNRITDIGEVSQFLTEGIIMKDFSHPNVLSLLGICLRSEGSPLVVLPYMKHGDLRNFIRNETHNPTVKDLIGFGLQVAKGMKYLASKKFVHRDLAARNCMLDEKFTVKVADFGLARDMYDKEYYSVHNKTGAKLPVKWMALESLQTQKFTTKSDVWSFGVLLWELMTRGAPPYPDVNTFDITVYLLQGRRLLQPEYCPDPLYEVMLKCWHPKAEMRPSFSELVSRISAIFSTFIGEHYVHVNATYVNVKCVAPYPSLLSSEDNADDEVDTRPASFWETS
Proto-oncogene tyrosine-protein kinase Src (Homo sapiens), sequence (P12931 2-536 limits assumed): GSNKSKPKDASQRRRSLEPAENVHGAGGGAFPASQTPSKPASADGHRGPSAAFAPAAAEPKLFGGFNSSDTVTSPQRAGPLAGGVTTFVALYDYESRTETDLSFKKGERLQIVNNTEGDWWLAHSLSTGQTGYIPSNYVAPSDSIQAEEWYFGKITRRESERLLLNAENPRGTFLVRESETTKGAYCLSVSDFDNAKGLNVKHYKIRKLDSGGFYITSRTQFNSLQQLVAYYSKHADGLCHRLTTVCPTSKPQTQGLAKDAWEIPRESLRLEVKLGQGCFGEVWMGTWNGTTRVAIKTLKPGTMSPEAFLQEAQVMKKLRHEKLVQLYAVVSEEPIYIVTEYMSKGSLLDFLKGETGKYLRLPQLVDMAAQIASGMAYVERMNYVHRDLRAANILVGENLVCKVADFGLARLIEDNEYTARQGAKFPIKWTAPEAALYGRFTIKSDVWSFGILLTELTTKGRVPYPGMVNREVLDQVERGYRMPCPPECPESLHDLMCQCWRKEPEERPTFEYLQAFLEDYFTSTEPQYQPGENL
Aurora kinase A (Homo sapiens), sequence (O14965 whole entry): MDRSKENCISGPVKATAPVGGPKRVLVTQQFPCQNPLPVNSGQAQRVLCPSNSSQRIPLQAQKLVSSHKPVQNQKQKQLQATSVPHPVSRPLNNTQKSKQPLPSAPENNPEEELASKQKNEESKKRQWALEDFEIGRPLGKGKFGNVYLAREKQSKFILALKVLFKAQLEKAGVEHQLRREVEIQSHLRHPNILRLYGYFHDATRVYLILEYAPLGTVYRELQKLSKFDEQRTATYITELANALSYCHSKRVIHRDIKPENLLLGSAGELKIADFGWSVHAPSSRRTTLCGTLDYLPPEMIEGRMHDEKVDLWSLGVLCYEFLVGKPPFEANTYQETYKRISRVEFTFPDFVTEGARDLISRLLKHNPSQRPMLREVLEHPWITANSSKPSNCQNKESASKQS
Tyrosine-protein kinase Lyn (Homo sapiens), sequence (P07948 2-512 limits assumed): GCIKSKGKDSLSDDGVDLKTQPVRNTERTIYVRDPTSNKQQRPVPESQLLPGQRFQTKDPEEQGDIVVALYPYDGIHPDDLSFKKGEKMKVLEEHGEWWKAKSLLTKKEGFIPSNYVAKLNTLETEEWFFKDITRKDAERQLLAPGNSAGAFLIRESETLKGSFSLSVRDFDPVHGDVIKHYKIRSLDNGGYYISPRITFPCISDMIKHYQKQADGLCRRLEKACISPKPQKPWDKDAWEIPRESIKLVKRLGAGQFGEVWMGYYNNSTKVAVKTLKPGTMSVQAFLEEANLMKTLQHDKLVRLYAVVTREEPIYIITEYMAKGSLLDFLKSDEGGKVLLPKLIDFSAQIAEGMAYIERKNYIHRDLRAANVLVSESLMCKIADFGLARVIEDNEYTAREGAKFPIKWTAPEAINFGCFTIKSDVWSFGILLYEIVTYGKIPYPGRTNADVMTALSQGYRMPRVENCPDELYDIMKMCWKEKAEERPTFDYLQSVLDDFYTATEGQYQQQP

Compound: COc1ccc(C(=O)NC(=O)Nc2ccc3c(c2)NC(=O)/C3=C\c2[nH]c(C)c(C(=O)NCCN3CCCC3)c2C)c(F)c1 [listing 1 of 2 here]
- Vd [1]: 22.2 L/kg
- pIC50 [2]: 8.64
- LD50 at 384 h [3]: > 20 mg/kg
- pIC50 (Cytochrome P450 3A4): < 5.00
- half-life [4]: 27.6 h
- Cmax [5]: 20.9 ng/mL
- pIC50 (Cytochrome P450 2D6): < 5.00
- AUC(0-t) at 24 h [6]: 252 ng·h/mL
- bioavailability [7]: 2.6%
- inhibition in vivo at 10 mg/kg (MOLM-13 [8]): > 90%
- pIC50 [9]: < 5.00
- AUC(0-t) at 24 h [10]: 1960 ng·h/mL
- half-life [11]: 8.6 h
- Activity (Vero): Non-toxic
- inhibition in vivo at 10 mg/kg (MOLM-13 [12]): 95%
- pIC50 [13]: 5.01
- pIC50 (MV4-11): 8.62
- selectivity ratio [14]: > 10
- pIC50 (Cytochrome P450 2C19): < 5.00
- Papp [15]: 1.78 ×10⁻⁶ cm/s
- pIC50 [16]: 7.85
- Ratio [17]: 0.36
- Tmax [18]: 6 min
- Activity (Mus musculus): Non-toxic
- Tmax [19]: 1.7 h
- pIC50 [20]: 8.55
- pIC50 (MOLM-13 [21]): 9.15
- pIC50 (Cytochrome P450 2C9): < 5.00
- Cmax [22]: 654 ng/mL
- pIC50 (THP-1 [23]): 7.31
- clearance [24]: 8.33 mL/min/kg

Compound: COc1ccc(C(=O)NC(=O)Nc2ccc3c(c2)NC(=O)/C3=C\c2[nH]c(C)c(C(=O)NCCN3CCCC3)c2C)c(F)c1 [listing 2 of 2 here]
- inhibition [25]: 40%
- inhibition [26]: inactive
- inhibition [27]: 38%
- inhibition [28]: 23%
- inhibition [29]: 18%
- inhibition [30]: 65%
- inhibition [31]: 13%
- inhibition [32]: 20%
- Activity (MOLM-13 [33]): Dose-dependent effect
- inhibition [34]: 74%
- inhibition [35]: 2%
- Activity (THP-1 [36]): Dose-dependent effect
- inhibition [37]: inactive
- inhibition [38]: 20%
- inhibition [39]: 20%
- inhibition [40]: 32%
- inhibition [41]: 10%
- Activity (MOLM-13 [42]): Dose-dependent effect
- inhibition (MOLM-13 [43]): Dose-dependent effect
- inhibition [44]: inactive
- inhibition [45]: 55%
- inhibition [46]: 32%
- inhibition [47]: 40%
- inhibition [48]: 21%
- inhibition [49]: 62%
- Activity (THP-1 [50]): Dose-dependent effect
- inhibition [51]: Dose-dependent effect
- inhibition [52]: Dose-dependent effect
- inhibition [53]: 97%
- Activity (MOLM-13 [54]): Active
- inhibition [55]: 57%
- inhibition [56]: inactive
- Activity (A549): Dose-dependent effect
